From patent US5969099A, “Growth factor analogs” (The Secretary of State for Defence, priority 1995, dated 1999)
Numbered stars: 1 amine (or outer) side, 2 acyl side, 3 side chain; on linkers, the order of the positions; unused ones are H or OH. Bridge positions count the residues as written; N and C are the ends. Square brackets hold non-standard residues; d marks the D form. Ends that are not written are not given here. Peptide text beside a SMILES is read from it. DABHC = 2-azabicyclo[2,2,1]heptane-3-carboxylic acid, D-form (1R,3R,4S), O=C([C@H]1[C@H]2CC[C@H](C2)N1[*:1])[*:2]; X2 = O=C([C@@H]1[C@@H]2CC[C@@H](C2)N1[*:1])[*:2]; X1 = O=C([C@H]1[C@H]2CC[C@H](C2)N1[*:1])[*:2]; LABHC = not defined here

Assays:
NR6/HER cells [1] = assay type: cell-based, mouse
Description: NR6 and NR6/HER cells (NR6 mouse fibroblasts transfected with human EGF-R expression plasmid) and HN5 squamous carcinoma cells (see Cowley, G. P. et al, Br. J. Cancer 1986, 53, 2230229) were routinely cultured in Dulbecco's Modified Eagles Medium (DMEM) containing 10% foetal bovine serum (FBS), 2 mM glutamine, non-essential amino acids, 10 U/ml penicillin and 10 μg/ml streptomycin at 37° C. in a humidified atmosphere of air containing 5% CO2. G418 (100 μg/ml) was also included in the NR6/HER growth medium as selection for EGF Receptor encoding transformants.
(§1) The ability of the Example 1 peptide to induce DNA synthesis in confluent and quiescent cells was assayed as described in Davies, D. E. et al, Br. J. Cancer 1994, 70, 263-269 but using NR6/HER or NR6 cells in place of human foreskin fibroplasts.

NR6/HER cells [2] = test: Effect of peptide on the mitogenic response induced by TGFA; assay type: cell-based, mouse
Description: as §1

EGF Receptor = molecular target: T1, EGF Receptor (Homo sapiens, UniProt P00533); test: EGF Receptor Tyr phosphorylation assay in HN5 cells (Western blotting); assay type: cell-based; conditions: 10 minutes at room temperature
T1 construct: endogenous in cells; host or cells: HN5 squamous carcinoma cells
T1 sequence (P00533 25-1210): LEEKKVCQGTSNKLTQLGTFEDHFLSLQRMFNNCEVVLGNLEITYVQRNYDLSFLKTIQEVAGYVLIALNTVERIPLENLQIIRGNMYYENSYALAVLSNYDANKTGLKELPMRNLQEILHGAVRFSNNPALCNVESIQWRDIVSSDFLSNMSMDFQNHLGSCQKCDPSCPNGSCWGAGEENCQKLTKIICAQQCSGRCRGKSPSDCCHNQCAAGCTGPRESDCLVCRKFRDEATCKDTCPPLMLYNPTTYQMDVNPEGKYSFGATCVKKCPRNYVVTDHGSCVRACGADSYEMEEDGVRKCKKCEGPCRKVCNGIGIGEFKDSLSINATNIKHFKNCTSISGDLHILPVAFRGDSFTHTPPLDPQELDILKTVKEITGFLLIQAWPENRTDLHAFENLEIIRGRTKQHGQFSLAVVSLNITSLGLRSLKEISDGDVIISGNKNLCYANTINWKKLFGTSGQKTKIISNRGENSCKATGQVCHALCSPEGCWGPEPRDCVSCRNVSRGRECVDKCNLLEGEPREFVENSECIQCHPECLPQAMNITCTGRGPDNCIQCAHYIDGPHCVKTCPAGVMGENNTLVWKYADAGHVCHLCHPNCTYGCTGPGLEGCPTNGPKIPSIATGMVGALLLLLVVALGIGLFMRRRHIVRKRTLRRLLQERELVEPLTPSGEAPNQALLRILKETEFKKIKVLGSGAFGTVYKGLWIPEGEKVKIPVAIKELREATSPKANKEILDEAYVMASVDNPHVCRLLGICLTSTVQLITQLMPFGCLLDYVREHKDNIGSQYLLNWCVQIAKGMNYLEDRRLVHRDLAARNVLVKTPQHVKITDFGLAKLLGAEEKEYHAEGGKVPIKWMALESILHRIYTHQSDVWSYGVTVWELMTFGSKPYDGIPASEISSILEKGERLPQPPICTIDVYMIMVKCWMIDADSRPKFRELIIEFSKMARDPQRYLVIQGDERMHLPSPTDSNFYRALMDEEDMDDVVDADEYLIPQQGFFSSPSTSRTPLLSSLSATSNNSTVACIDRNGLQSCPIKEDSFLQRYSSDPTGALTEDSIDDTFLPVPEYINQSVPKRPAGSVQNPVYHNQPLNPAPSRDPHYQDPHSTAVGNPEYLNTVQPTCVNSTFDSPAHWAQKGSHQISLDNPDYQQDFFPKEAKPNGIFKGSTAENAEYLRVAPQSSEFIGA
Description: EGF Receptor Tyr phosphorylation assays were performed using HN5 cells at approximately 50% confluence in 96-well plates. Cells were plated in 10% FBS/DMEM and allowed to adhere overnight. Medium was removed and wells washed twice with DMEM. The peptide was diluted in DMEM and added in 50 μl volume and cells incubated for 10 minutes at room temperature. At the end of incubation, reagents were removed and the cells washed once with 50 μl/well buffered saline and then rapidly solubilised with 50 μl/well×1 sample buffer containing phosphatase and protease inhibitors (1 mM NaF, 1 mM Na3 VO4, 100 μM PMSF). Enhanced phosphorylation of the 170 kDa EGF-R was determined by Western Blotting after SDS polyacrylamide gel electrophoresis as in Holt, S. J. et al, Biochem. Pharmacol. 1994, 47, 117-126.

NR6 cells = test: Mitogenic activity on parental NR6 cell line which lacks EGF-R; assay type: cell-based, mouse; conditions: doses maximally stimulating for NR6/HER cells; FIG. 3
[3] = molecular target: human EGF Receptor on NR6/HER cells (NR6 mouse fibroblasts transfected with human EGF-R expression plasmid) (human, UniProt P00533); test: cell-based or functional assay

Row | Molecule | EC50 (NR6/HER cells [1]) | DNA synthesis (mitogenic activity), EC50 [3] | also measured
1 | CC(C)C[C@@H]1NC(=O)[C@H](Cc2ccccc2)NC(=O)[C@H](CCCNC(=N)N)NC(=O)[C@@H](NC(=O)[C@@H](N)Cc2ccccc2)CSSC[C@@H](C(=O)O)NC(=O)[C@H](C)NC(=O)[C@H]2[C@H]3CC[C@H](C3)N2C(=O)[C@H](CCCCN)NC(=O)[C@H](CC(=O)O)NC(=O)[C@H](CCC(=O)O)NC(=O)[C@H](CCC(N)=O)NC(=O)[C@H](C(C)C)NC1=O [Example 1 peptide] (H-FCRFLVQEDK[X1]AC-OH; disulfide 2-13) | 130 µM |  | 
2 | PDGF |  |  | mitogenic response of NR6 cells (EGF-R negative) (NR6 cells): responsiveness of the cells to a mitogenic stimulus was confirmed
3 | FCRFLVQEDK[DABHC]AC (disulfide 2-13) |  | 130 µM | 

Continued, in another order:

Row | EC50 (NR6/HER cells [1]) | DNA synthesis (mitogenic activity), EC50 [3] | Molecule | also measured
4 | 330 µM |  | CC(C)C[C@@H]1NC(=O)[C@H](Cc2ccccc2)NC(=O)[C@H](CCCNC(=N)N)NC(=O)[C@@H](NC(=O)[C@@H](N)Cc2ccccc2)CSSC[C@@H](C(=O)O)NC(=O)[C@H](C)NC(=O)[C@@H]2[C@@H]3CC[C@@H](C3)N2C(=O)[C@H](CCCCN)NC(=O)[C@H](CC(=O)O)NC(=O)[C@H](CCC(=O)O)NC(=O)[C@H](CCC(N)=O)NC(=O)[C@H](C(C)C)NC1=O [peptide incorporating LABHC] (H-FCRFLVQEDK[X2]AC-OH; disulfide 2-13; N-terminus assumed) | effect on mitogenic response at maximal doses of TGFA (NR6/HER cells [2]; maximal doses of TGFA, FIG. 2(b)): Similar, but less pronounced; effect on mitogenic response at suboptimal doses of TGFA (NR6/HER cells [2]; suboptimal doses of TGFA, FIG. 2(a)): Similar, but less pronounced; EGF Receptor phosphorylation (EGF Receptor): Neither the Example 1 peptide nor the corresponding peptide incorporating LABHC appeared to lead to increased EGF Receptor phosphorylation
5 |  | 330 µM | FCRFLVQEDK[LABHC]AC (disulfide 2-13; reading uncertain) | 
